Source: patent US6743795B1, “3-nitropyridine derivaives and the pharmaceutical compositions containing said derivatives” (Dong Wha Pharm. Ind. Co. Ltd., priority 1999, dated 2004)
Where two headings read alike, the source gives them in different places.

Legend:
[1] = Cytotoxicity test on HepG2 cells (MTT); type: cell-based; settings: human; HepG2 cells, MTT; read-out: Cytotoxicity on HepG2, IC50 (50% Inhibitory Concentration)
From the text: (§1) <Experiment 4> Cytotoxicity Test

HepG2 cells = assay: Cytotoxicity test on HepG2 cells (MTT); type: cell-based
From the text: as §1

HBV = assay: Proliferation of HBV in HBV producing cell line HepG 2.2.15 (competitive PCR of culture supernatant); type: cell-based, Hepatitis B virus; settings: HepG 2.2.15, one week; for inhibition at 0.1 µg/mL / inhibition at 1 µg/mL / inhibition at 0.01 µg/mL: Hepatitis B virus, HepG2.2.15, 168 h, read-out: Inhibitory effect on the HBV proliferation: Inhibition activity on HBV-RT (%)
Protocol: <Experiment 2> Inhibitory Effect on the Proliferation of HBV in HBV Producing Cell Line
The following experiment was performed to determine inhibitory effects of compounds of formula 1 on the proliferation of HBV producing cell line.
To test for antiviral effect, replication and proliferation of HBV were measured in HepG 2.2.15, a human liver cancer cell line.
The cell concentration was adjusted to 1×10^5 cells/ml and 1 ml was added to each well of a 24-well cell culture plate, which was then kept in a culture box for 3-4 days at 37° C. under 5% CO2 until cells grew sufficiently, changing culture medium everyday. When the cells matured sufficiently, the test compounds were added to the final concentrations of 0.01, 0.1, and 1 μg/ml. One week after the addition of test compounds, the culture solution was centrifuged at 5,000 rpm for 10 min. 25 μl of supernatant was transferred to a new tube and 5 μl of lysis solution [0.54N NaOH, 0.06% NP40] was added to each tube. After keeping the tube at 37° C. for 1 hr, 30 μl of neutralizing solution [0.09N HCl 0.1MTris-HCl, pH7.4] was added as a reaction solution for competitive polymerase chain reaction (PCR).
PCR was performed using genetic sequence of HBV core protein as a matrix. PCR reaction was carried out by adding 1 unit of Taq polymerase enzyme to 25 pmol of each primer, 250 μM dNTP, 5 μl of PCR reaction solution [0.54N NaOH, 0. 06% NP40, 0.09N HCl, 0.1M Tris-HCl, pH 7.4].
DNA polymerized by PCR was electrophoresed on Agarose gel and quantitatively analyzed using an image analyzer (Gel Doc 1000, Bio-Rad) in order to evaluate the effect of compounds of the present invention on the reduction of HBV proliferation.
3TC (lamivudine) was used as a positive control at the same concentrations as those of the test compounds. The percentage of reduction in HBV proliferation was calculated using the group without test compound as a control and the results are represented in Table 4.

HBV polymerase = target: T1, HBV polymerase (Hepatitis B virus genotype A2 subtype adw2, UniProt P03159); assay: In vitro reverse transcription activity of HBV polymerase (ELISA-type, DIG/biotin nucleotides); type: biochemical; settings: for inhibition at 0.01 µg/mL / inhibition at 0.1 µg/mL / inhibition at 1 µg/mL: read-out: Inhibition activity on HBV-RT (%)
T1 construct: made in house; host or cells: E. coli
T1 sequence (P03159 whole entry): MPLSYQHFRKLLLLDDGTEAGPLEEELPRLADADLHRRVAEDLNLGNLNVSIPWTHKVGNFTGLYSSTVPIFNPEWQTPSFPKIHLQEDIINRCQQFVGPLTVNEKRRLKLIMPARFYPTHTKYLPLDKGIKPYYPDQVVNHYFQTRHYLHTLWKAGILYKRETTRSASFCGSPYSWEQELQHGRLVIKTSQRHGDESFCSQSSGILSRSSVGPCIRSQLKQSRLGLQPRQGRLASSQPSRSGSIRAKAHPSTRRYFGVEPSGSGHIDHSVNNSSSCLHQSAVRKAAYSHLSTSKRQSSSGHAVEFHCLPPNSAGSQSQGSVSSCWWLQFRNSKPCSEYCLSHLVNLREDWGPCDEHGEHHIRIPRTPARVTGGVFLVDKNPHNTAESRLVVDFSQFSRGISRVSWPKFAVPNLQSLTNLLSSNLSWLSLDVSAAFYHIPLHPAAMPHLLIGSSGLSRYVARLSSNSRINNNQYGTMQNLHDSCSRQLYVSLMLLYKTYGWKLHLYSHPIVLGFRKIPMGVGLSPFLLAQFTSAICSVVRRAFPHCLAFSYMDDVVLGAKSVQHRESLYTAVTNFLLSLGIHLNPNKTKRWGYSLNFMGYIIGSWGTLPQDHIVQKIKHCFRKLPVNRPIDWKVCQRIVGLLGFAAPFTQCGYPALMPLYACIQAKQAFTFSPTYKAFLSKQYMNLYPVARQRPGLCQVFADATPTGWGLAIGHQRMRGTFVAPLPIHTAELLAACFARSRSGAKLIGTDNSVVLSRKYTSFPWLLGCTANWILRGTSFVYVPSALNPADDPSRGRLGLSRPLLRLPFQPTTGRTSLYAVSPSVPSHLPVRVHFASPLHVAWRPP
Protocol: <Experiment 1> Inhibitory Effect on the In Vitro Activities of HBV Polymerase in Reverse Transcription
The following in vitro experiment was performed to determine the effect of the compounds of formula 1 on the activity of HBV polymerase during reverse transcription.
The present inventors submitted application for a patent concerning HBV polymerase genetically expressed in and separated from E.coli, the process of its preparation, and the method to measure the enzyme activities (KR 94-3918, KR 96-33998). In the present experiments HBV polymerase was used which had been expressed in E. coli as stated above.
The method used in the present invention to measure in vitro reverse transcribing activities of HBV polymerase is as follows. Basic principles are the same as for ELISA. Nucleotides with biotin or digoxigenin group attached are included as substrates and anti-DIG antibodies attached to peroxidase enzyme recognize the polymerized substrates.
To the wells coated with streptavidin, 20 μl of HBV polymerase, 20 μl of reaction mixture (10 μM each of DIG-UTP and Biotin-UTP, 46 mM Tris-HCl, 266 mM KCl, 27.5 mM MgCl2, 9.2 mM DTT substrate/primer nybrid), and 20 μl of test compound (added to 1, 0.1, and 0.01 μg/ml) were added and allowed to react at 22° C. for 15 hrs. During this reaction, HBV polymerase catalyzes DNA synthesis and digoxigenin and biotin attached to nucleotides form bonds with streptavidin coated on the bottom of wells. When the reaction was done, each well was washed with 250 μl of cleaning buffer (pH 7.0) for 30 seconds, which was repeated five times to remove remaining impurities. 200 μl of anti-DIG-POD antibody was added to each well and allowed to react for 1 hr at 37° C., and the wells were washed with cleaning buffer to remove impurities. 200 μl each of ABTS™, a substrate of peroxidase, was then added and allowed to react at room temperature for 30 min. Absorbance was measured at 405 nm using ELISA reader.
The percentage of reduction in HBV polymerase activities for reverse transcription was calculated using the group without test compound as a control and the results are shown in Table 3.

[2] = target: T2, HIV reverse transcriptase (Human immunodeficiency virus type 1 group M subtype B, UniProt P03366); assay: In vitro HIV reverse transcriptase activity (non-radioactive RT assay kit); type: biochemical
T2 construct: purchased Boehringer Mannheim
Protocol: <Experiment 3> Inhibitory Effect on the In Vitro HIV Enzyme Activities in Reverse Transcription
The following in vitro experiments were done to determine the effect of compounds of formula 1 on the reduction of HIV enzyme activities in reverse transcription.
Non-radioactive reverse transcriptase assay kit (Boehringer Mannheim) was used in the measurement of in vitro transcriptase activities. 20 μl (40 ng) of HIV transcriptase and 20 μl of reaction mixture containing matrix-primer hybrid poly(A)oligo(dT)15, DIG(digoxigenin)-dUTP, biotin-dUTP, and TTP were added to wells coated with streptavidin. Test compounds were also added at the final concentrations of 0.1 and 1 μg/ml and allowed to react at 37° C. for 1 hr. At this time, DNA is formed from RNA by the action of HIV reverse transcriptase, forming bonds with streptavidin coated on the bottom of wells because of digoxigenin and biotin moieties attached to nucleotides.
When the reaction was completed, each well was washed with 250 μl of cleaning buffer (pH7.0) for 30sec. five times to remove remaining impurities. 200 μl of anti-DIG-POD […] was added to each well, allowed to react at 37° C. for 1 hr and washed as above to remove impurities. 200 μl of ABTS™, a substrate for peroxidase, was added to each well and allowed to react at room temperature for 30 min. Absorbance at 405 nm was then read for each solution using ELISA reader and used for quantitative determination of inhibitory effect on the HIV transcriptase activities. The percentage of reduction in the activities of HIV reverse transcriptase was calculated using the group without test compound as control and the results are represented in Table 5.

With `COc1ccc([N+](=O)[O-])c(Nc2ccc3cn[nH]c3c2)n1` [Example 2, 2-(1H-6-indazolylamino)-6-methoxy-3-nitropyridine] the IC50 [1] was > 100 µg/mL, the “Cytotoxicity on HepG2, MCD (Minimal Cytotoxic Concentration)” value (“Cytotoxicity on HepG2, MCD” for short) (HepG2 cells; HepG2 cells, MTT) was 100 µg/mL and the inhibition at 0.1 µg/mL (HBV; 0.1 μg/ml) was 40%. It also gave an inhibition at 1 µg/mL (HBV; 1 μg/ml) of 72%, an inhibition at 0.01 µg/mL (HBV polymerase; 0.01 μg/ml test compound) of 12% and an inhibition at 0.1 µg/mL (HBV polymerase; 0.1 μg/ml test compound) of 50%. It also gave an inhibition at 1 µg/mL (HBV polymerase; 1 μg/ml test compound) of 76%.
With “6-ethyl-(2-hydroxyethyl)amino-2-(1H-5-indazolylamino)-3-nitropyridine [Example 11]” the “Inhibitory effect on the activities of HIV reverse transcriptase: Inhibition activity on HIV-RT (%)” value (shortened to “Inhibitory effect on the activities … (%)”) ([2]; 0.1 μg/ml test compound) was 46%, the “Inhibitory effect on the activities … (%)” value ([2]; 1 μg/ml test compound) was 67% and the “Cytotoxicity on HepG2, IC50 (50% Inhibitory Concentration)” value (HepG2 cells) was >100 µg/mL. For the same compound, the “Cytotoxicity on HepG2, MCD” value (HepG2 cells) was 100 µg/mL, the “Inhibitory effect on the HBV proliferation: Inhibition activity on HBV-RT (%)” value (from here on “Inhibitory effect on the HBV proliferation … (%)”) (HBV; 0.01 μg/ml) was 20% and the “Inhibitory effect on the HBV proliferation … (%)” value (HBV; 0.1 μg/ml) was 45%. The “Inhibitory effect on the HBV proliferation … (%)” value (HBV; 1 μg/ml) was 83%, the “Inhibition activity on HBV-RT (%)” value (HBV polymerase; 0.01 μg/ml test compound) was 35% and the “Inhibition activity on HBV-RT (%)” value (HBV polymerase; 0.1 μg/ml test compound) was 60%. The “Inhibition activity on HBV-RT (%)” value (HBV polymerase; 1 μg/ml test compound) was 85%.
With `CC(C)Nc1ccc([N+](=O)[O-])c(Nc2ccc3cn[nH]c3c2)n1` [Example 6, 2-(1H-6-indazolylamino)-6-isopropyl amino-3-nitropyridine] the “Inhibitory effect on the activities … (%)” value ([2]; 0.1 μg/ml test compound) was 50%, the “Inhibitory effect on the activities … (%)” value ([2]; 1 μg/ml test compound) was 69% and the “Cytotoxicity on HepG2, IC50 (50% Inhibitory Concentration)” value (HepG2 cells; HepG2 cells, MTT) was >100 µg/mL. For the same compound, the “Cytotoxicity on HepG2, MCD” value (HepG2 cells; HepG2 cells, MTT) was 100 µg/mL, the “Inhibitory effect on the HBV proliferation … (%)” value (HBV; 0.01 μg/ml) was 33% and the “Inhibitory effect on the HBV proliferation … (%)” value (HBV; 0.1 μg/ml) was 72%. The “Inhibitory effect on the HBV proliferation … (%)” value (HBV; 1 μg/ml) was 90%, the “Inhibition activity on HBV-RT (%)” value (HBV polymerase; 0.01 μg/ml test compound) was 49% and the “Inhibition activity on HBV-RT (%)” value (HBV polymerase; 0.1 μg/ml test compound) was 76%. The “Inhibition activity on HBV-RT (%)” value (HBV polymerase; 1 μg/ml test compound) was 91%.
In the case of `O=[N+]([O-])c1ccc(NCc2cccnc2)nc1Nc1ccc2cn[nH]c2c1` [Example 20, 2-(1H-6-indazolylamino)-3-nitro-6-(3-pyridyl)methylaminopyridine], the melting point is reported as > 270 °C, the “Inhibitory effect on the activities … (%)” value ([2]; 0.1 μg/ml test compound) is reported as 53% and the “Inhibitory effect on the activities … (%)” value ([2]; 1 μg/ml test compound) is reported as 84%. The inhibition at 0.01 µg/mL (HBV polymerase; 0.01 μg/ml test compound) was 21%, the inhibition at 0.1 µg/mL (HBV polymerase; 0.1 μg/ml test compound) was 40% and the inhibition at 1 µg/mL (HBV polymerase; 1 μg/ml test compound) was 66%.
In the case of `O=[N+]([O-])c1ccc(NC(CO)CO)nc1Nc1ccc2[nH]ncc2c1` [Example 14, 6-[bis(hydroxymethyl)methylamino)-2-(1H-5-indazolylamino)-3-nitropyridine], the melting point is reported as > 270 °C, the “Inhibitory effect on the activities … (%)” value ([2]; 0.1 μg/ml test compound) is reported as 44% and the “Inhibitory effect on the activities … (%)” value ([2]; 1 μg/ml test compound) is reported as 59%. It also gave an inhibition at 0.01 µg/mL (HBV; 0.01 μg/ml) of 22%, an inhibition at 0.1 µg/mL (HBV; 0.1 μg/ml) of 41% and an inhibition at 1 µg/mL (HBV; 1 μg/ml) of 80%. The inhibition at 0.01 µg/mL (HBV polymerase; 0.01 μg/ml test compound) was 30%, the inhibition at 0.1 µg/mL (HBV polymerase; 0.1 μg/ml test compound) was 49% and the inhibition at 1 µg/mL (HBV polymerase; 1 μg/ml test compound) was 85%.
With `O=[N+]([O-])c1ccc(N2CCNCC2)nc1Nc1ccc2[nH]ncc2c1` [Example 23, 2-(1H-5-indazolylamino)-3-nitro-6-(1-piperazinyl)pyridine] the melting point was 270 °C (dec.), the inhibition at 0.01 µg/mL (HBV; 0.01 μg/ml) was 35% and the inhibition at 0.1 µg/mL (HBV; 0.1 μg/ml) was 55%. It also gave an inhibition at 1 µg/mL (HBV; 1 μg/ml) of 92%, an inhibition at 0.01 µg/mL (HBV polymerase; 0.01 μg/ml test compound) of 51% and an inhibition at 0.1 µg/mL (HBV polymerase; 0.1 μg/ml test compound) of 66%. For the same compound, the inhibition at 1 µg/mL (HBV polymerase; 1 μg/ml test compound) was 96%.
In the case of `O=[N+]([O-])c1ccc(NCc2ccccn2)nc1Nc1ccc2cn[nH]c2c1` [Example 22, 2-(1H-6-indazolylamino)-3-nitro-6-(2-pyridyl)methylaminopyridine], the melting point is reported as 256 °C (dec.), the inhibition at 0.01 µg/mL (HBV polymerase; 0.01 μg/ml test compound) is reported as 49% and the inhibition at 0.1 µg/mL (HBV polymerase; 0.1 μg/ml test compound) is reported as 60%. For the same compound, the inhibition at 1 µg/mL (HBV polymerase; 1 μg/ml test compound) was 81%.
For `C[C@@H](CCO)Nc1ccc([N+](=O)[O-])c(Nc2ccc3[nH]ncc3c2)n1` [Example 12, 6-[(1S)-1-(hydroxyethyl)ethylamino]-2-(1H-5-indazolylamino)-3-nitropyridine], the melting point was > 270 °C, the “Inhibitory effect on the activities … (%)” value ([2]; 0.1 μg/ml test compound) was 40% and the “Inhibitory effect on the activities … (%)” value ([2]; 1 μg/ml test compound) was 64%. For the same compound, the inhibition at 0.01 µg/mL (HBV; 0.01 μg/ml) was 29%, the inhibition at 0.1 µg/mL (HBV; 0.1 μg/ml) was 48% and the inhibition at 1 µg/mL (HBV; 1 μg/ml) was 85%. For the same compound, the inhibition at 0.01 µg/mL (HBV polymerase; 0.01 μg/ml test compound) was 38%, the inhibition at 0.1 µg/mL (HBV polymerase; 0.1 μg/ml test compound) was 56% and the inhibition at 1 µg/mL (HBV polymerase; 1 μg/ml test compound) was 90%.
